Reference: patent EP0325762B1, “Macrocyclic chelating agents and chelates thereof” (BRACCO S.p.A., priority 1987, dated 1989)

Assays:
[1] = Determination of relaxivity (longitudinal R1 by Inversion Recovery, transverse R2 by Carr-Purcell-Meiboom-Gill sequence, MINISPEC PC 120 BRUKER); assay type: physicochemical; settings: 20 MHz (proton), 39°C, pH 7.3, 0 to 5 mM, water; for R₁: longitudinal relaxivity; for R₂: transverse relaxivity
Description: Determination of the relaxivity of the compounds of the present invention.
Longitudinal relaxivity (R₁) measurements were calculated using the "Inversion Recovery" sequence with an 8 point minimum and a 3 parameter fit, according to the program provided for the MINISPEC […] BRUKER instrument, by which measurements were taken.
Transverse relaxivity (R₂) measurements were calculated using the sequence of Carr, Purcell, Meiboom and Gill, according to the program provided for the MINISPEC 120 BRUKER instrument, by means of which measurements were taken, adjusting the apparatus in such a way as to observe the decay of the signal to about 1/3 of the starting value, with a score number higher or equal to 10 and a 2 parameter fit.
In table I, R₁ and R ₂ values calculated for compounds A and B in comparison with Gd/DTPA neutralized with N-methylglucamine, are reported as non-limiting examples.

[2] = tested on: mouse; experiment: Determination of LD50 in the mouse by intravenous administration; assay type: in vivo; settings: male and female mice, Strain: Crl:CDl(ICR)BR, range in parentheses
Text: Determination of LD₅₀ in the mouse by intravenous administration of the compounds of the present invention. In table II are reported, as non-limiting examples, the LD₅₀ values for compounds A and B of the present invention, in comparison with GdCl₃ and with Gd/DTPA neutralized with N-methylglucamine.

SMILES | R₁ ([1]; solvent 0.154 M NaCl (0.9%)) | R₂ ([1]; solvent 0.154 M NaCl (0.9%)) | LD₅₀ in the mouse* in mmol/kg - intravenous [2] | R₁ ([1]; solvent 0.154 M (0.9%)) | R₂ ([1]; solvent 0.154 M (0.9%))
C[NH2+]C[C@H](O)[C@@H](O)[C@H](O)[C@H](O)CO.O=C([O-])CN1CCN(CC(=O)[O-])CCN(C(COCc2ccccc2)C(=O)[O-])CCN(CC(=O)[O-])CC1.[Gd+3] (stereo not shown) [A, Gd^(3+)/2-[1,4,7,10-tetraaza-4,7,10-tri(carboxymethyl)-cyclododecane-1-yl]-3-benzyloxypropionic acid, neutralized with N-methylglucamine] | 4.15 ± 0.01 mM/s | 5.67 ± 0.02 mM/s | 8.8 (7.79 - 9.94) mmol/kg |  | 
C[NH2+]C[C@H](O)[C@@H](O)[C@H](O)[C@H](O)CO.O=C([O-])CN1CCN(CC(=O)[O-])CCN(C(CO)C(=O)[O-])CCN(CC(=O)[O-])CC1.[Gd+3] (stereo not shown) [B, Gd^(3+)/2-[1,4,7,10-tetraaza-4,7,10-tri(carboxymethyl)-cyclododecane-1-yl]-3-hydroxypropionic acid, neutralized with N-methylglucamine] | 3.72 ± 0.01 mM/s | 5.06 ± 0.01 mM/s | 13.1 (12.2 - 14.1) mmol/kg |  | 
CNC[C@H](O)[C@@H](O)[C@H](O)[C@H](O)CO.CNC[C@H](O)[C@@H](O)[C@H](O)[C@H](O)CO.O=C([O-])CN(CCN(CC(=O)[O-])CC(=O)O)CCN(CC(=O)[O-])CC(=O)O.[Gd+3] [Gd/DTPA, reference compound] |  |  | 4.8 (4.47 - 5.16) mmol/kg | 4.08 ± 0.01 mM/s | 5.15 ± 0.02 mM/s
[Cl][Gd]([Cl])[Cl] [GdCl₃, reference compound] |  |  | 0.28 (0.24 - 0.32) mmol/kg |  | 
